Measurements reported in patent US12708655B2, “Botanicals as WNT/beta-catenin activators, molecular pathway regulators, tissue regenerators and health biomarker regulators” (Arbor Life Holdings, Ltd., priority 2020, dated 2026).
Values joined by “and” are separate entries in the source; they are usually repeats but may differ in a detail not shown here. Equal entries are not always repeated.

Assays:
[1] = tested on: androgentic alopecia and telogen effluvium in Women; experiment: Comparative analysis of clinical trial results in women versus standard of care, adjusted to 24 weeks; assay type: in vivo, human
[2] = tested on: androgenetic alopecia and telogen effluvium in Men; experiment: Comparative analysis of clinical trial results in men versus standard of care, adjusted to 24 weeks; assay type: in vivo, human
[3] = tested on: procaspase-8, caspase-3, procaspase-9, Bax, p53, Bcl-2, Bcl-XL; details: mouse model of hair loss; cited from earlier work
[4] = tested on: human dermal papilla stem cells (HDPSCs); experiment: MTT assay of HDPSC growth/proliferation in culture; assay type: cell-based; details: for MTT signal (absorbance at 570 nm), mean relative to Control 1.00: n = 6; for Change vs Control (stem cells, MTT): Table 5e; for Change in Stem Cells (MTT signal, mean relative to Control 1.00): n = 29-30
Method: Passage 3 human dermal papilla stem cells (HDPSCs) from a person were purchased from Sigma-Aldrich (Burlington, ON, Canada) and all work was performed under Brock University Research Ethics Board approval (File 15-138). The cells were grown on collagen-coated plates in a 50:50 mixture of Dulbecco's modified Eagles medium (DMEM):Ham's F12 media (Sigma) supplemented with 10% fetal bovine serum (FBS), 1% Gluta-Max™, 0.1% penicillin/streptomycin, 20 ng/mL human fibroblast growth factor, and 10 ng/mL human epidermal growth factor (complete medium). Cell cultures were maintained in incubators set to 5% CO2, 37° C. and 100% humidity. Experiments were performed under conditions of unregulated O2 (18-19%), except where indicated. Cells initially underwent 5-7 passages and were then stored frozen in vials of one million cells each in the above medium supplemented with 10% dimethylsulfoxide (DMSO) and stored in liquid nitrogen. For each experiment, a single vial was thawed, grown overnight, and used to seed 96-well plates.
Botanical extracts and Biotin were screened for their ability to stimulate HDPSC growth in culture using a 96-well plate format with MTT assay as an endpoint. Cells were treated for 72 h with various concentrations and combinations (as indicated, range; 1×10^−1-1×10^−5) of extracts (Table 5a). All the ingredients were able to stimulate growth or cell proliferation above control to varying rates and by varied concentrations.
Cell proliferation was assessed by MTT [3-(4,5-dimethylthiazol-2-yl)-2,5-diphenyltetrazolium bromide] assay according to the manufacturer's recommendations. HDPSCs were seeded onto collagen-coated 96-well plates at~2000 cells/well and grown in complete medium overnight. The next day, indicated concentrations of botanical extracts were added to individual wells.
For all constituents, lyophilized extracts (botanicals) or oil (Biotin) were initially dissolved in PBS at the following concentrations: Biotin 0.25 mg/mL; grapeseesd 7.5 mg/mL; skullcap 1.7 mg/mL; eclipta 3.0 mg/mL. These solutions were sterilized by passing through a 0.45 μm syringe filter. The following dilutions of these solutions, referred to as “Stock Solutions”, were then used for experimental treatments in cell culture media: Biotin (1:100); grapeseed (1:1000); skullcap (1:1000); eclipta (1:100). DMEM media and extracts were refreshed each day. The following day, the MT assay was performed to evaluate cell growth. For this, all media/extract was removed from wells and replaced with phenol-red free DMEM. The cells were incubated for 2 h at 37° C. in a tissue culture incubator. Solubilization solution was then applied to lyse cells and the mixture was triturated repeatedly. The solubilized solutions from each well were then transferred to a fresh 96-well plate and absorbance read at 570 nm. Experiments were tested for 3 different concentration models and one was repeated three times at 5% oxygen and three times at 18% oxygen.
Botanical extracts of grapeseed, skullcap and eclipta and Biotin were screened for their ability to stimulate HDPSC growth in culture using a 96-well plate format with MT assay as an endpoint. Cells were treated for 72 h with various concentrations and combinations with further stock dilutions in the range; 10^−1-10^−5 of the extracts. […] (See Tables 5a, b, c, d, e, f, and g).

[5] = tested on: Wnt/beta-Catenin signaling; experiment: TopFlash/FopFlash luciferase assay of Wnt/beta-Catenin signaling in transfected HDPSCs; assay type: cell-based, human
Method: The cells were then seeded onto a collagen coated 96-well plate (white opaque with clear bottom, Greiner Bio-one 655098) using 2500 cells per well on average with 200 μL supplemented D-MEM. […] In a 1.5 or 2 mL centrifuge tube, 60 μL FuGene® 6 was added to 500 μL DMEM (with no supplements or antibiotics) medium and mixed gently, then incubated for 5 min. 1) and 2) were combined and mixed gently, then incubated for 20 min at room temperature with occasional gentle mixing by hand. Old medium was removed from all wells and replaced with 100 μL fresh supplemented D-MEM. […] was then added to each well and mixed gently by pipette. Medium was changed after 4-6 h with 100 μL fresh supplemented DMEM. […] The treatments were performed three times once a day for a total of three days of treatment. Medium was removed from each well and wells were washed with 50 μL room temperature PBS so that no colour could be seen leftover. 20 μL lysis solution was added to each well and hand shaken every few minutes for a total of 15 mins. The fluorescence spectrophotometer (Varian Cary Eclipse model) was set to: • Data mode: Bio/Chemi-luminescence • Emission wavelength: 560.00 nm • Stop time: 0.8 mins • PMT Detector Voltage: […] 3 of the duplicates of the wells from 3) were used to count the cells in each well and estimate a count for each type of extract. Stimulation of stem cell growth and proliferation can be achieved by activation of the Wnt/beta-Catenin signaling pathway. Having confirmed proliferation of […] by exposure to grapeseed, skullcap, eclipta and Biotin and combinations thereof, a series of studies were conducted to detect and measure the upregulation of the Wnt/beta-Catenin protein as the activation mechanism of the HDPSC proliferation. The method selected for the Wnt/beta-Catenin protein studies was transfection with Topflash and Fopflash plasmids followed by measuring luciferase activity by bioluminescence assays. Topflash and Fopflash plasmids were obtained as bacterial stab cultures from Add gene. Plasmid DNA was purified using the Norgen Biotek kit (info). […] Old medium was removed and replaced with 100 μL fresh complete medium. 20 μL of DNA/FuGENETM 6 mixture was added and mixed gently by pipette. After 4-6 h, medium was removed and replaced with 100 μL fresh complete medium. Botanical extracts were then added to each well. Treatments lasted 72 h with media/extracts refreshed every 24 h. Activation of Wnt/beta-Catenin signaling was assayed as luciferase activity using standard bioluminescence assays. Media from each well was removed and cells were washed twice with 50 μL PBS. 20 μL of cell lysis solution was then added to each well and the plate was incubated at room temperature for 15 min. Luminescence at 560±10 nm was measured using a Varian Cary Eclipse fluorescence spectrophotometer. […] Following transfection, cells were treated for three days as for the MTT assay and then assayed for luciferase activity using standard assays. […] To evaluate whether the extract combinations with Biotin identified in FIG. 1 activate Wnt/beta-Catenin signaling, […] were transfected with Topflash plasmid, which contains the luciferase cDNA and several tandem repeats of the Wnt/beta-Catenin response element.^230 Following transfection, cells were treated for three days as for the MTT assay and then assayed for luciferase activity using standard assays.

male pattern baldness = details: human, in vivo; cited from earlier work

For `Nc1cc(N2CCCCC2)nc(N)[n+]1[O-]` [2% minoxidil, minoxidil], the “Efficacy Factor Multiple vs 2% Minoxidil” value [1] was 1.0 and the “Efficacy Factor Multiple vs 2% Minoxidil” value [2] was 1.0.
In the case of `Nc1cc(N2CCCCC2)nc(N)[n+]1[O-]` [5% minoxidil, minoxidil], the “Efficacy Factor Multiple vs 2% Minoxidil” value [1] is reported as 1.0 and the “Efficacy Factor Multiple vs 2% Minoxidil” value [2] is reported as 1.9.
For `CC(C)(O)[C@@H]1CC[C@](C)([C@H]2[C@@H](O)C[C@@]3(C)[C@@H]4C[C@H](O[C@@H]5O[C@H](CO)[C@@H](O)[C@H](O)[C@H]5O)[C@H]5C(C)(C)[C@@H](O[C@@H]6OC[C@@H](O)[C@H](O)[C@H]6O)CC[C@@]56C[C@@]46CC[C@]23C)O1` [Astragaloside IV], the “effect on Bax, p53, Bcl-2 and Bcl-XL” value [3] is given as “down-regulation of Bax and p53 (pro-apoptotic molecules), and up-regulation of the anti-apoptotic Bcl-2 and Bcl-XL molecules” and the “effect on procaspase-8, caspase-3 and procaspase-9” value [3] is given as “blocked the procaspase-8, resulting in the inhibition of the pro-apoptosis enzymes caspase-3 and procaspase-9 activities”.
In the case of `O=C(O)CCCC[C@@H]1SC[C@@H]2NC(=O)N[C@@H]21` [Biotin], the “HDPSC growth in the MTT assay, result in words” value ([4]; 72 h, stock dilutions 10^−1-10^−5) is reported as “statistically significant reduction in the cell population”, the “MTT signal (absorbance at 570 nm), mean relative to Control 1.00” value ([4]; Table 5b, dilution 1/10^3, 5% oxygen, 72 h) is reported as 1.12 and the “MTT signal (absorbance at 570 nm), mean relative to Control 1.00” value ([4]; Table 5b, dilution 1/10^4, 5% oxygen, 72 h) is reported as 0.95. For the same molecule, the “MTT signal (absorbance at 570 nm), mean relative to Control 1.00” value ([4]; Table 5b, dilution 1/10^5, 5% oxygen, 72 h) was 0.69, the “MTT signal (absorbance at 570 nm), mean relative to Control 1.00” value ([4]; Table 5c, dilution 1/10^3, 5% oxygen, 72 h) was 0.76 and the “MTT signal (absorbance at 570 nm), mean relative to Control 1.00” value ([4]; Table 5c, dilution 1/10^4, 5% oxygen, 72 h) was 0.70. For the same molecule, the “MTT signal (absorbance at 570 nm), mean relative to Control 1.00” value ([4]; Table 5c, dilution 1/10^5, 5% oxygen, 72 h) was 0.95, the “Change vs Control (stem cells, MTT)” value ([4]; dilution 1/10^3, 5% oxygen) was 52.0% and the “Change vs Control (stem cells, MTT)” value ([4]; dilution 1/10^5, 5% oxygen) was −21.0%. For the same molecule, the “Change in Stem Cells (MTT signal, mean relative to Control 1.00)” value ([4]; Table 5d, dilution of stock 1/10^4, 5% oxygen, 72 h) was 1.09, the “Change in Stem Cells (MTT signal, mean relative to Control 1.00)” value ([4]; Tables 5f/5g, dilution of stock 1/10^3, 18% oxygen, 72 h) was 0.99 and the “Change in Stem Cells (MTT signal, mean relative to Control 1.00)” value ([4]; Tables 5f/5g, dilution of stock 1/10^4, 18% oxygen, 72 h) was 1.21. For the same molecule, the “Change in Stem Cells (MTT signal, mean relative to Control 1.00)” value ([4]; Tables 5f/5g, dilution of stock 1/10^5, 18% oxygen, 72 h) was 0.98, the “Change in Stem Cells (MTT signal, mean relative to Control 1.00)” value ([4]; Tables 5d/5e, dilution of stock 1/10^3, 5% oxygen, 72 h) was 1.52 and the “Change in Stem Cells (MTT signal, mean relative to Control 1.00)” value ([4]; Tables 5d/5e, dilution of stock 1/10^5, 5% oxygen, 72 h) was 0.79. The “HDPSC population reduced by” value ([4]; stock dilution 10^−5) was 21%, the “HDPSC Proliferation (MTT, means % relative to Control = 100%)” value ([4]; stock dilution 10^−5, 5% oxygen, 72 h) was 79% and the “relative effect on Wnt/beta-Catenin Signaling (Control=100)” value ([5]; No Biotin, 18% oxygen, 72 h) was 97. For the same molecule, the “luciferase activity in TopFlash transfected HDPSCs, individual replicate measurements (single treatments)” value ([5]; Table 9b, replicates 1-28, 18% oxygen, 72 h) was 21.57 arbitrary luminescence values and 17.5 arbitrary luminescence values and 14.29 arbitrary luminescence values and 19.58 arbitrary luminescence values (2×) and 23.45 arbitrary luminescence values and 26.25 arbitrary luminescence values and 19.99 arbitrary luminescence values and 20.75 arbitrary luminescence values (2×) and 12.46 arbitrary luminescence values and 7.884 arbitrary luminescence values and 11.65 arbitrary luminescence values and 12.51 arbitrary luminescence values (2×) and 16.28 arbitrary luminescence values and 20.14 arbitrary luminescence values and 20.65 arbitrary luminescence values and 10.28 arbitrary luminescence values and 7.63 arbitrary luminescence values and 10.94 arbitrary luminescence values and 15.57 arbitrary luminescence values and 18.62 arbitrary luminescence values and 20.5 arbitrary luminescence values and 14.24 arbitrary luminescence values and 15.72 arbitrary luminescence values and 22.03 arbitrary luminescence values and 23.3 arbitrary luminescence values, the “luciferase activity in TopFlash transfected HDPSCs, individual replicate measurements (combination experiment with Biotin)” value ([5]; Table 9d, replicates 1-21, 18% oxygen, 72 h) was 79.5782 arbitrary luminescence values and 105.8972 arbitrary luminescence values and 78.0728 arbitrary luminescence values and 83.6682 arbitrary luminescence values and 87.4832 arbitrary luminescence values and 90.9168 arbitrary luminescence values and 94.2910 arbitrary luminescence values and 100.5561 arbitrary luminescence values and 22.6868 arbitrary luminescence values and 41.6603 arbitrary luminescence values and 37.0416 arbitrary luminescence values and 33.2163 arbitrary luminescence values and 44.2139 arbitrary luminescence values and 48.4257 arbitrary luminescence values and 95.4836 arbitrary luminescence values and 110.3368 arbitrary luminescence values and 109.6925 arbitrary luminescence values and 129.5662 arbitrary luminescence values and 112.3295 arbitrary luminescence values and the “luciferase activity in TopFlash transfected HDPSCs, mean (single treatments)” value ([5]; Tables 9a/9b, 18% oxygen, 72 h, 560 ± 10 nm, 27-28 replicates) was 17.0 ± 0.9 arbitrary luminescence values and 17.02 arbitrary luminescence values. For the same molecule, the “luciferase activity in TopFlash transfected HDPSCs, mean (combination experiment with Biotin)” value ([5]; Tables 9c/9d, 18% oxygen, 72 h, 18-20 replicates) was 79.2 ± 7.3 arbitrary luminescence values and 79.2167 arbitrary luminescence values, the “relative effect on Wnt/beta-Catenin Signaling (Control=100)” value ([5]; With Biotin, 18% oxygen, 72 h) was 99 and the “% Change vs Control / Wnt/β-catenin Signal Upregulation of Combinations vs Control” value ([5]; combination with Biotin (or Biotin alone), dilution 10^−3, 18% oxygen) was −1.0%. For the same molecule, the “effect of Biotin on Wnt/beta-Catenin signaling upregulated by botanical extracts” value ([5]; tested in combination with botanical extracts) was “attenuating or inhibiting effect”.
For procyanidin, the adverse side effects (male pattern baldness) is given as “without any adverse side effects”.
